Experiments:
[1] = test system: porcine pancreatic lipase; assay: Lipase assay: resistance to hydrolysis by porcine pancreatic lipase; type: in vitro ADME; settings: pig, pH 8
Experimental: The polyglycerols in Examples III, IV, V, VI, VII, X, XI were subjected to digestion by porcine pancreatic lipase to test for resistance to hydrolysis. This test is an indicator of resistance to digestion within a mammalian digestive system.
Lipase Assay--The following materials and procedure were employed:
0.05M Tris-HCl buffered at pH=8.0 at 37° C.
60 mg porcine pancreatic lipase (Sigma Cat. No. L3126) to 5.0 ml of the above L-histidine solution.
Olive oil is used as a standard in these assays. The olive oil is from Sigma, cataloque number 01500.
1. Weigh 0.2000 grams of standard or sample into each of three 125 ml Erlenmeyer flasks.
2. To each flask add 8.0 ml of Salts solution, and 1.0 ml of the 0.05M Tris-HCl solution. Stopper each flask and place them in a shaker water bath equilibrated to 37° C. Commence agitation at 250 rpm. A New Brunswick shaker water bath was used throughout this study.
3. After the samples have equilibrated to temperature, 15-20 minutes, add 1.0 ml of enzyme to each of two flasks and 1.0 ml of histidine solution to the third flask as a blank. Stagger the addition to each flask by at least 30 seconds. The third flask in each set is the sample blank, which accounts for any free acids in the sample. Reactions should run both for 1 hour and 18 hours.
4. When reaction time has expired, add 50 ml of isopropanol to each flask. Prior to titration with 0.05-0.10N KOH in methanol, add a few drops of 1% phenolphthalein in ethanol to each flask. The exact concentration of .the potassium hydroxide solution should be standardized using KHP, potassium hydrogen phthalate. Titrate each flask to the pink endpoint and record the amount of base required to neutralize the sample. If solubility is a problem, warm sample slightly in a water bath prior to titration.
5. For olive oil, the % hydrolysis for each sample will be the mmoles KOH divided by the mmoles fatty acids available×(times) 100. An average molecular weight for olive oil of 880 g/mole can be used The corrected % hydrolysis is the % hydrolysis for the lipase-treated sample minus the % hydrolysis for the blank. For more heterogeneous samples (complex esters), the % hydrolysis can be calculated as the (AV/SAP Value)×100. The AV for each sample is (mmole KOH sample--mmole KOH blank) (56 mg KOH/mmole)/sample weight in grams. The saponification value can be determined using a method such as A.O.C.S. Official Method Cd 3-25. It is defined as the mg KOH required to saponify a gram of sample. The % hydrolysis can then be determined by taking a ratio of the measured AV after lipase treatment/SAP VALUE 100.

[2] = rat, in vivo
[3] = in vivo; cited from earlier work

| Substance | Percent Hydrolysis 1 hr. [1] [%] | Percent Hydrolysis 18 hrs. [1] [%] | % Digested in Rats [2] [%] | absorption / hydrolysis and metabolism in rat feeding studies [3] |
| --- | --- | --- | --- | --- |
| Polyglycerol polyoleate [Example XI] | 0.5 | 5.3 | 50 |  |
| polyglycerol polyoleate [Example III] | 2.7 | 4.4 | 52 |  |
| Polyglycerol polyoleate [Example VII] | 4.2 | 7.8 | 70 |  |
| decaglycerol dodecaoleate |  |  |  | substantially absorbed |
| Propoxylated polyglycerol polyoleate [Example IV] | 2.7 | 2.3 | 26 |  |
| Propoxylated polyglycerol polytallowate [Example V] | 2.4 | 3.8 | 18 |  |

Source: patent US5399371A, “Low calorie substitute for an edible oil” (Henkel Corporation, priority 1993, dated 1995)
